Structures can show the parent of a compound that is named as a salt.
Assays:
[1] = system: serotonin (5-HT) uptake, rat whole brain synaptosomes; assay: Inhibition of tritiated serotonin uptake into synaptosomes from rat whole brain in vitro; format: biochemical; settings: for IC50: rat whole brain synaptosomes, 3H-5-HT about 1×10^-7 M, 5 min preincubation, 4 min incubation
Description: (§1) Compounds of the previous examples are tested for their ability to block the uptake of tritiated serotonin into synaptosomal nerve endings from rat whole brain in vitro essentially by the method of Thornburg and Moore as described in Res. Comm. Chem. Pathol. Pharmacol. 5, 81 (1973). The preincubation period of the test compound (added in ethanol solution) with the whole brain synaptosome suspension in Krebs buffer is 5 minutes. The incubation period, following the addition of tritiated serotonin (^3 H-5-HT) to a final concentration of about 1×10^-7 M, is 4 minutes. The concentration of test agent required to inhibit serotonin uptake by 50% of control value i.e. the IC50, is determined graphically and expressed in micromolar concentration.

[2] = system: norepinephrine (NE) uptake, rat whole brain synaptosomes; assay: Inhibition of tritiated norepinephrine uptake into synaptosomes from rat whole brain in vitro; format: biochemical; settings: 3H-NE
Description: as §1
The concentration of test agent required to inhibit norepinephrine (NE) uptake by 50% of the control value, i.e., the IC50 is similarly determined using tritiated norepinephrine (^3 H-NE) and is also expressed in micromolar concentration.

[3] = system: reserpine treated rabbits; assay: Reversal of reserpine-induced ptosis in the rabbit; format: in vivo; settings: reserpine 2 mg/kg i.v. 90 minutes before i.v. infusion of 0.2% drug solution
Description: The serotonin uptake inhibiting or serotonin activating properties of the compounds of the invention are indicative of antidepressant properties as determined by the reversal of reserpine-induced ptosis (i.e. […]) in the rabbit. Rabbits are injected intravenously with 2 mg/kg reserpine 90 minutes before the i.v. infusion of 0.2% drug solution into the ear vein according to the method of J. Mizoule et al. (J. Pharmacol., 8, 3, 269-285, 1977). The complete opening of the eye-lids is taken as a criterion for reversal of the reserpine-induced ptosis. The results are expressed in terms of the mean dose of test compound inducing complete opening of the eye-lids in reserpine treated rabbits.

[4] = system: norepinephrine (NE) uptake, rat midbrain synaptosomes; assay: Inhibition of 3H-NE uptake in rat midbrain synaptosomes in vitro; format: biochemical; settings: rat midbrain-diencephalon synaptosomes; NE 1×10^-8 M; 20 minutes
Description: The inhibition of norepinephrine (NE) uptake is determined in rat midbrain synaptosomes in vitro as follows:
Synaptosomes from the rat midbrain-diencephalon region are prepared and the uptake of ^3 H-NE is measured as described by Baumann and Maitre, Naunyn-Schmiedeberg's Arch. Pharmacol. 300, 31 (1977). The concenrtration of NE in the incubation medium is 1×10^-8 M, and the incubation period is 20 minutes. The concentration required to inhibit norepinephrine uptake by 50%, i.e. the IC50, is determined.

[5] = system: serotonin (5-HT) uptake, rat midbrain synaptosomes; assay: Inhibition of 3H-5-HT uptake in rat midbrain synaptosomes in vitro; format: biochemical; settings: rat midbrain-diencephalon synaptosomes; 5-HT 2.5×10^-9 M; 10 minutes
Description: The inhibition of serotonin (5-HT) uptake indicative of potential antidepressant activity is determined in rat midbrain synaptosomes in vitro as follows:
Synaptosomes from the rat midbrain-diencephalon region are prepared and the uptake of ^3 H-5-HT measured as described by Baumann and Maitre, Naunyn-Schmiedeberg's Arch. Pharmacol. 300, 31 (1977). The concentration of 5-HT in the incubation medium is 2.5×10^-9 M, and the incubation period is 10 minutes. The concentration of a compound of this invention required to inhibit serotonin uptake by 50%, i.e. the IC50, is determined.

serotonin uptake = assay: H 75/12 test: inhibition of the serotonin depleting effect of H 75/12 in rat brain; format: in vivo; settings: for ED50: oral, 30 minutes before H 75/12 (25 mg/kg s.c.), 4 hours
Description: The inhibition of the serotonin depleting effect of 3-hydroxy-4-methyl-α-ethylphenethylamine (H 75/12) in rat brain serves as an indirect indication of serotonin uptake inhibitory activity. (Carlsson, Corrodi, Fuxe and Hoekfelt, Europ. J. Pharmacol. 5, 357, 1969). A diminution of serotonin release by H 75/12 is considered to be due to a serotonin uptake inhibitory effect of the test compound. The compound to be tested is administered orally 30 minutes before H 75/12 (25 mg/kg s.c.) and the animals are decapitated 4 hours thereafter. The brains are immdiately taken out and serotonin is determined as described above. The ED50 represents the dose of the test compound inhibiting the serotonin-depleting effect of H75/12 by 50%.

serotonin (5-HT) uptake = assay: Serotonin (5-HT) uptake inhibition in rats pretreated with compounds; format: in vivo, rat
Description: Serotonin (5-HT) uptake inhibition is also determined in rats pretreated with compounds of the instant invention.

| Structure (SMILES) | IC50 [1] | IC50 [2] | further results |
| --- | --- | --- | --- |
| COc1cccc(OCC(Cc2ccccc2)CN(C)C)c1 (centres unmarked) [3/1] | 0.43 µM | 4.3 µM | – |
| CSc1ccc(OCC(Cc2ccccc2)CN(C)C)cc1.O=C(O)C(=O)O (centres unmarked) [3/2, N,N-dimethyl-2-benzyl-3-(4-methylmercaptophenoxy)-propylamine oxalate] | 0.27 µM | 10.8 µM | mean dose inducing complete opening of the eye-lids [3]: about 7.7 mg/kg i.v.; IC50 [4]: ~0.5 µM; IC50 [5]: ~0.03 µM; ED50 (serotonin uptake): ~2.3 mg/kg; inhibition of 3H-5HT uptake (serotonin (5-HT) uptake; 30 mg/kg p.o.): about 80% |
| CN(C)CC(COc1ccccc1Cl)Cc1ccccc1 (centres unmarked) [3/3] | 1.3 µM | 5.3 µM | – |
| CN(C)CC(COc1ccc(Cl)cc1)Cc1ccccc1 (centres unmarked) [3/4] | 1.49 µM | 12 µM | – |
| COc1ccc(OCC(Cc2ccccc2)CN2CCCCC2)cc1 (centres unmarked) [3/5] | 6.1 µM | 39.5 µM | – |
| CN(C)CC(COc1cccc(Cl)c1)Cc1ccccc1 (centres unmarked) [3/6] | 2.7 µM | 16.1 µM | – |
| Cc1ccc(OCC(Cc2ccccc2)CN(C)C)cc1 (centres unmarked) [3/7] | 1.22 µM | 12.5 µM | – |
| Cc1cccc(OCC(Cc2ccccc2)CN(C)C)c1 (centres unmarked) [3/8] | 1.25 µM | 3.25 µM | – |
| COc1ccc(SCC(Cc2ccccc2)CN(C)C)cc1 (centres unmarked) [3/9] | 1.53 µM | 8.1 µM | – |
| CN(C)CC(COc1cccc(C(F)(F)F)c1)Cc1ccccc1 (centres unmarked) [3/10] | 2.25 µM | 6.9 µM | – |
| COc1cccc(SCC(Cc2ccccc2)CN(C)C)c1 (centres unmarked) [3/11] | 1.95 µM | 7.6 µM | – |
| COc1cc(OC)cc(OCC(Cc2ccccc2)CN(C)C)c1 (centres unmarked) [3/12] | 1.52 µM | 4.3 µM | – |
| C=CCOc1cccc(OCC(Cc2ccccc2)CN(C)C)c1 (centres unmarked) [3/13] | 0.59 µM | 1.44 µM | – |
| CSc1ccc(OCC(Cc2ccc(Cl)cc2)CN(C)C)cc1 (centres unmarked) [3/14] | 0.67 µM | 7.1 µM | – |
| CN(C)CC(COc1ccc(C(F)(F)F)cc1)Cc1cccc(Cl)c1 (centres unmarked) [3/15] | 6 µM | 32 µM | – |
| COc1ccc(OCC(Cc2ccccc2)CN(C)C)cc1 (centres unmarked) [3/16] | 0.56 µM | 0.57 µM | – |
| CNCC(COc1ccc(OC)cc1)Cc1ccccc1 (centres unmarked) [6/1] | 0.44 µM | 1.25 µM | – |
| CNCC(COc1ccc(SC)cc1)Cc1ccccc1 (centres unmarked) [6/2, N-methyl-2-benzyl-3-(4-methylthiophenoxy)propylamine] | 0.14 µM | 2.5 µM | – |
| CNCC(COc1ccc(SC)cc1)Cc1cccc(Cl)c1 (centres unmarked) [6/3] | 2.7 µM | 11 µM | – |
| CN(C)CC(COc1ccc(C(F)(F)F)cc1)Cc1ccccc1.O=C(O)C(=O)O (centres unmarked) [Example 1, N,N-dimethyl-2-benzyl-3-(4-trifluoromethylphenoxy)propylamine oxalate] | 0.49 µM | 15.2 µM | mean dose inducing complete opening of the eye-lids [3]: ~12.6 mg/kg i.v.; IC50 [4]: ~3 µM; IC50 [5]: ~0.015 µM; ED50 (serotonin uptake): ~4.5 mg/kg; inhibition of 3H-5HT uptake (serotonin (5-HT) uptake; 30 mg/kg p.o.): ~60% |
| CSc1ccc(OCC(Cc2cccc(Cl)c2)CN(C)C)cc1.O=C(O)C(=O)O (centres unmarked) [Example 2, N,N-dimethyl-2-(3-chlorobenzyl)-3-(4-methylmercaptophenoxy)propylamine oxalate] | 0.03 µM | 5 µM | ED50 (serotonin uptake): ~1.4 mg/kg |
| CNCC(COc1ccc(C(F)(F)F)cc1)Cc1ccccc1 (centres unmarked) [Example 4, N-methyl-2-benzyl-3-(4-trifluoromethylphenoxy)propylamine hydrochloride] | 0.39 µM | 12.6 µM | – |
| CNCC(COc1cccc(OC)c1)Cc1ccccc1 (centres unmarked) [Example 5, N-methyl-2-benzyl-3-(3-methoxyphenoxy)propylamine oxalate] | 0.94 µM | 1.39 µM | – |
| CNCC(COc1ccccc1OC)Cc1ccccc1 (centres unmarked) [Example 8, N-methyl-2-benzyl-3-(2-methoxyphenoxy)propylamine oxalate] | 5.4 µM | 8.9 µM | – |
| CCN(CC)CC(COc1ccccc1)Cc1ccccc1.Cl (centres unmarked) [Example 16, N,N-diethyl-2-benzyl-3-phenoxypropylamine hydrochloride, reference compound] | 7.3 µM | 3.3 µM | selectivity (serotonin vs norepinephrine uptake) in in vitro tests ([1]; in vitro, whole brain and midbrain synaptosomes, in words): no selectivity is seen in in vitro tests; IC50 [4]: 2 µM; IC50 [5]: 2.2 µM; inhibition of the serotonin-depleting effect of H 75/12 (serotonin uptake; 30 mg/Kg p.o.): 17%; in vivo serotonin uptake inhibitory activity (serotonin uptake; 30 mg/Kg p.o., in words): no significant in vivo serotonin uptake inhibitory activity |
| CNCC(COc1ccc(C(F)(F)F)cc1)Cc1ccccc1.O=C(O)C(=O)O (centres unmarked) [N-methyl-2-benzyl-3-(4-trifluoromethylphenoxy)-propylamine oxalate] | – | – | mean dose inducing complete opening of the eye-lids [3]: ~12.9 mg/kg i.v.; IC50 [4]: ~2 µM; IC50 [5]: ~0.01 µM; ED50 (serotonin uptake): ~1.8 mg/kg; inhibition of 3H-5HT uptake (serotonin (5-HT) uptake; 10 mg/kg p.o.): ~50% |

— patent publication US4824868A, “Propylamine derivatives useful for the treatment of dementia” (Ciba-Geigy Corporation, priority 1987, dated 1989)
